Results as given in ChEMBL document CHEMBL1201862, “PubChem BioAssay data set” (2004).
Active and inactive are the calls of the source.

Assays:
[1] = biological target: Epstein-Barr nuclear antigen 1 (Epstein-Barr virus (strain B95-8) (HHV-4) (Human herpesvirus 4), UniProt P03211); test: inhibition of EBV nuclear antigen 1 DNA binding – biochemical, fluorescence polarization, 1536-well, dose response (AID 2381); design: species or system human gammaherpesvirus 4;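 also: fluorescence polarization of a Cy5 DNA probe bound by EBNA-1 protein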
Cytochrome P450 2C9 = Cytochrome P450 2C9 (Homo sapiens, UniProt P11712)
[2] = biological target: Lytic switch protein BZLF1 (Epstein-Barr virus (strain B95-8) (HHV-4) (Human herpesvirus 4), UniProt P03206); test: inhibition of BZLF1 ZTA DNA binding – biochemical, fluorescence polarization, Epstein-Barr virus, 1536-well, counter-screen for EBNA-1 inhibitor project, dose response (AID 2377); design: species or system human gammaherpesvirus 4;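 also: fluorescence polarization of Cy5-labelled ZRE DNA probe bound by purified Zta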
cells [3] = test: cells
[4] = microbe, parasite or virus in culture; format: functional; conditions: Mycobacterium tuberculosis
[5] = Luminescence Cell-Based Dose Retest to Confirm Inhibitors of Cancer Stem Cells. [Related pubchem assays (depositor defined):AID2717, AID2721]; format: functional; conditions: Homo sapiens
[6] = viability of uninfected HEp-2 cells – cell-based, HTS, cytotoxicity control for RSV inhibitor project, dose response (AID 2410); format: functional; conditions: human respiratory syncytial virus
[7] = biological target: Voltage-gated inwardly rectifying potassium channel KCNH2 (Homo sapiens, UniProt Q12809); test: concentration-dependent hERG rescue from blockers – cell-based, thallium flux, dose response (AID 2121); format: ADME
Bcl-2-related protein A1 [8] = biological target: T1, Bcl-2-related protein A1 (Mus musculus, UniProt Q07440); test: Bfl-1 binding inhibitors, SAR follow-up, biochemical, fluorescence polarization (AID 1070)
T1 sequence (Q07440 whole entry): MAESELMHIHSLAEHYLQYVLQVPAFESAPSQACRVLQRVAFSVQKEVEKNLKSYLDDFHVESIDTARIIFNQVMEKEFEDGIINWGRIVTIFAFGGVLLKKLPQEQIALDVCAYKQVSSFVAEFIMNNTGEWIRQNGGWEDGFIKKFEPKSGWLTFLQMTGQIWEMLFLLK

Bcl-2-related protein A1 [9] = biological target: T1, Bcl-2-related protein A1; test: small-molecule antagonists of Bfl-1/BH3 interaction – biochemical, TR-FRET, mouse Bfl-1, confirmation (AID 621);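 also: TR-FRET binding of GST-Bfl-1 to FITC-labelled Bid peptide via terbium antibody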
Estrogen receptor [10] = biological target: T2, Estrogen receptor (Homo sapiens, UniProt P03372);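 also: potency for inhibiting coactivator peptide recruitment to the receptor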
T2 sequence (P03372 whole entry): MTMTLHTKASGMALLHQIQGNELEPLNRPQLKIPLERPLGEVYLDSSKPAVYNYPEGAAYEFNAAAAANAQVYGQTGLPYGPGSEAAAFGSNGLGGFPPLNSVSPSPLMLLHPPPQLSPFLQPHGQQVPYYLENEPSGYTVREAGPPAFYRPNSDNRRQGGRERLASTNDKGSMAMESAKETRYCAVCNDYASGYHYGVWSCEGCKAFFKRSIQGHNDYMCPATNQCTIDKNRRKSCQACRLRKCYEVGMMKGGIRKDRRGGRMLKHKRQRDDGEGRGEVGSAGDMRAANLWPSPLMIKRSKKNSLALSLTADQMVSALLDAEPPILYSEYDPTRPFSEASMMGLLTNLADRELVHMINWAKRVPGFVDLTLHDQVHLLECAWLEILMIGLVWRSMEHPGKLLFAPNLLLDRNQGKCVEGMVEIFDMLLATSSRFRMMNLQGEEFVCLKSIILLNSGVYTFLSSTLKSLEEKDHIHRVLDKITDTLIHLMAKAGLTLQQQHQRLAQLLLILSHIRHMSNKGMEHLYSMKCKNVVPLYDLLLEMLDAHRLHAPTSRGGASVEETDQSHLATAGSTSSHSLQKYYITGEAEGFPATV

HEK293 [11] = test: cells; conditions: Homo sapiens
HEK293 [12] = test: cells; conditions: Homo sapiens; remark: listed apart in the source
Estrogen receptor [13] = biological target: T2, Estrogen receptor; test: ERα coactivator recruitment enhancers – biochemical, TR-FRET, ERα LBD, dose response (AID 737)
[14] = A Cell Based Secondary Assay To Explore Cytotoxicity of Compounds that Sensitize Mycobacterium Tuberculosis to Beta-Lactam Antibiotics.; format: functional
[15] = biological target: FAD-linked sulfhydryl oxidase ALR (Homo sapiens, UniProt P55789); test: ALR-catalysed DTT oxidation blockers – biochemical, H2O2 detection, luminescence, cherry-pick, dose response (AID 493248)
[16] = Luminescent dose response cell-based high throughput screening assay for inhibitors of the Janus kinase 2 mutant JAK2V617F. [Related pubchem assays: 1446 (Primary screen.), 1521 (Confirmation assay.), 1486 (Counter screen.)]; format: functional
[17] = biological target: T3, Rac GTPase-activating protein 1 (Homo sapiens, UniProt Q9H0H5); test: blockers of MgcRacGAP-driven Rac1 GTP hydrolysis – biochemical, ADP Hunter fluorescence, primary and confirmatory, confirmation (AID 624330); format: functional
T3 sequence (Q9H0H5 whole entry): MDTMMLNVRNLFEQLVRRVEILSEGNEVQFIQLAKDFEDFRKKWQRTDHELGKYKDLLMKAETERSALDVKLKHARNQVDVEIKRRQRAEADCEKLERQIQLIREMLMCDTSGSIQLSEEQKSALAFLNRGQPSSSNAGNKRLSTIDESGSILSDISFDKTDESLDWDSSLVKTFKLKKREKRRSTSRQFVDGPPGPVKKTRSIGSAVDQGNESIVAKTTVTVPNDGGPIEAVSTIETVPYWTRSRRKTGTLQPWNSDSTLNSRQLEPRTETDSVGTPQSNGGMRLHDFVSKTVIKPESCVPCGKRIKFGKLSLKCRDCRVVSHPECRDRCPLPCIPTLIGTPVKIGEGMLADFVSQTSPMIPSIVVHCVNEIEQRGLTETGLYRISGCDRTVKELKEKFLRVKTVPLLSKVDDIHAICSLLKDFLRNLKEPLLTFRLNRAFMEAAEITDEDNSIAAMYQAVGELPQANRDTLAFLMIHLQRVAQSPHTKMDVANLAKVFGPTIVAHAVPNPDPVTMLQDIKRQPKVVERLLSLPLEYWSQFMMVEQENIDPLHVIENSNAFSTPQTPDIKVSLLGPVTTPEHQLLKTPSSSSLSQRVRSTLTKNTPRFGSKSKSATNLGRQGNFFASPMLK

BJ [18] = test: cells; format: functional, cell-based; conditions: Homo sapiens
BJ [19] = test: BJ-TERT fibroblast viability loss – cell-based, RAS-independent, luminescence, dose response (AID 1933); format: functional; conditions: Homo sapiens
BJ [20] = test: growth inhibition of engineered Ras-driven BJ cells – cell-based, alamar blue fluorescence, cherrypicked samples, dose response (AID 2631); format: functional; conditions: Homo sapiens;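 also: confirmatory dose-response assay in RAS-dependent BJ fibroblasts engineered with TERT, LT and ST, with cytotoxicity read by fluorescence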
BJ [21] = test: BJ-TERT-LT-ST fibroblast viability loss – cell-based, RAS-independent, luminescence, dose response (AID 1935); format: functional; conditions: Homo sapiens;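 also: BJ fibroblasts immortalized with TERT plus LT and ST oncogenes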
[22] = DRD fibroblast viability loss – cell-based, non-viral oncogenic, luminescence, dose response (AID 1934); format: functional; conditions: Homo sapiens
cells [23] = format: functional
Galanin receptor type 2 = Galanin receptor type 2 (Homo sapiens, UniProt O43603); test: Dose Response cell-based high-throughput screening assay to identify antagonists of galanin receptor 2 (GALR2). [Related pubchem assays: 828, 866 ]; format: functional
Estrogen receptor beta [24] = biological target: T4, Estrogen receptor beta (Homo sapiens, UniProt Q92731);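 also: recombinant ER-beta bound to coactivator SRC1 peptide in presence of estradiol agonist; inhibitors block coactivator peptide binding and lower the FRET signal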
Estrogen receptor beta [25] = biological target: T4, Estrogen receptor beta; test: blockers of SRC-3 recruitment to ERβ – biochemical, ELISA, streptavidin-HRP readout, orthogonal assay, confirmation (AID 1060)
[26] = biological target: 5-hydroxytryptamine receptor 1A (Homo sapiens, UniProt P08908); format: functional
[27] = biological target: T5, Heat shock factor protein 1 (Mus musculus, UniProt P38532); test: enhancement of HSF1-driven luciferase signal – cell-based, NIH3T3, luminescence, dose retest, confirmation (AID 435004); format: functional;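 also: stress induced by proteasome inhibitor MG132 added 30 min after compound; luciferase reporter driven by HSF1 response element in NIH3T3 cells; actives raise luminescence as potentiators of the MG132 stress response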
T5 sequence (P38532 whole entry): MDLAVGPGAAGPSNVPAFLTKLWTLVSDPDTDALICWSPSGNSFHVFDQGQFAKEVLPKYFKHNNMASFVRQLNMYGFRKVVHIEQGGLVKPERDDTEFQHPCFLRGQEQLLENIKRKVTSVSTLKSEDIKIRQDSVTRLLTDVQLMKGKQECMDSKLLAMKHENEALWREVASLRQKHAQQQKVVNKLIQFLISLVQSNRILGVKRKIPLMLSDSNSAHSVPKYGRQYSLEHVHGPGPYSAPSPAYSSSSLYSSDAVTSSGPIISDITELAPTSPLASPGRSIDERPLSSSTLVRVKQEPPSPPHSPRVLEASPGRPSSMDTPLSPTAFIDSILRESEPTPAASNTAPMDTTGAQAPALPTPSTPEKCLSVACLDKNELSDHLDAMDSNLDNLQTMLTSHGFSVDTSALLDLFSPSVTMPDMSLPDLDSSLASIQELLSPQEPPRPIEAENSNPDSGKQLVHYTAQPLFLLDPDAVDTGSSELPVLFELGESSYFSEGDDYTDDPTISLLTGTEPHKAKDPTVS

[28] = Fluorescence-based cell-based high throughput dose response assay for inhibitors of the interaction of nucleotide-binding oligomerization domain containing 2 (NOD2) and the receptor-interacting serine-threonine kinase 2 (RIPK2).; format: functional; conditions: Homo sapiens
[29] = glucagon-like peptide-1 release potency in STC-1, concentration-response, half-maximal inhibitory concentration in the STC-1 line (AID 1117345); format: functional, cell-based
[30] = Potency on glucagon-like peptide 1 release, dose-response in NCI-H716 cell line, half maximal inhibitory concentration (AID 1117344); format: functional, cell-based

Sequence of Lytic switch protein BZLF1 (P03206 whole entry): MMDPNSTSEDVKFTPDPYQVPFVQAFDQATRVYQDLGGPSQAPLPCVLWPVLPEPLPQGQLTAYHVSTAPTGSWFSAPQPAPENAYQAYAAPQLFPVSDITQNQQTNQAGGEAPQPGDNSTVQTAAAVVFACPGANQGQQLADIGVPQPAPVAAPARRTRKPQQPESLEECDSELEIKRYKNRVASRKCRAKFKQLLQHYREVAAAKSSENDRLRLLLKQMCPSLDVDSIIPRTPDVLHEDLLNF
T4 sequence (Q92731 whole entry): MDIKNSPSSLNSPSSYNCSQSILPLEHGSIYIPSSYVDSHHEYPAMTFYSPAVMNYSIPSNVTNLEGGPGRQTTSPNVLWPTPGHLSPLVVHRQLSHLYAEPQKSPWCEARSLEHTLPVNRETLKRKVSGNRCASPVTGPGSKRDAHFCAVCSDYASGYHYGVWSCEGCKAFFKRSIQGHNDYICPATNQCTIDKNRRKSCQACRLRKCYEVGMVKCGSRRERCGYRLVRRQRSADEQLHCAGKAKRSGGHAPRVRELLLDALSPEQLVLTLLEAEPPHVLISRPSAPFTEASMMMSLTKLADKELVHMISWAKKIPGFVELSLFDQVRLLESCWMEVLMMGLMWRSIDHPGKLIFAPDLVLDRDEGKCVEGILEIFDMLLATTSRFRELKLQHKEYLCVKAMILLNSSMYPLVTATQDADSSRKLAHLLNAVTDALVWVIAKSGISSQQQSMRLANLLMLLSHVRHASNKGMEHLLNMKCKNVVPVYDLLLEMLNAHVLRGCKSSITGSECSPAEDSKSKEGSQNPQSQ
Sequence of Voltage-gated inwardly rectifying potassium channel KCNH2 (Q12809 whole entry): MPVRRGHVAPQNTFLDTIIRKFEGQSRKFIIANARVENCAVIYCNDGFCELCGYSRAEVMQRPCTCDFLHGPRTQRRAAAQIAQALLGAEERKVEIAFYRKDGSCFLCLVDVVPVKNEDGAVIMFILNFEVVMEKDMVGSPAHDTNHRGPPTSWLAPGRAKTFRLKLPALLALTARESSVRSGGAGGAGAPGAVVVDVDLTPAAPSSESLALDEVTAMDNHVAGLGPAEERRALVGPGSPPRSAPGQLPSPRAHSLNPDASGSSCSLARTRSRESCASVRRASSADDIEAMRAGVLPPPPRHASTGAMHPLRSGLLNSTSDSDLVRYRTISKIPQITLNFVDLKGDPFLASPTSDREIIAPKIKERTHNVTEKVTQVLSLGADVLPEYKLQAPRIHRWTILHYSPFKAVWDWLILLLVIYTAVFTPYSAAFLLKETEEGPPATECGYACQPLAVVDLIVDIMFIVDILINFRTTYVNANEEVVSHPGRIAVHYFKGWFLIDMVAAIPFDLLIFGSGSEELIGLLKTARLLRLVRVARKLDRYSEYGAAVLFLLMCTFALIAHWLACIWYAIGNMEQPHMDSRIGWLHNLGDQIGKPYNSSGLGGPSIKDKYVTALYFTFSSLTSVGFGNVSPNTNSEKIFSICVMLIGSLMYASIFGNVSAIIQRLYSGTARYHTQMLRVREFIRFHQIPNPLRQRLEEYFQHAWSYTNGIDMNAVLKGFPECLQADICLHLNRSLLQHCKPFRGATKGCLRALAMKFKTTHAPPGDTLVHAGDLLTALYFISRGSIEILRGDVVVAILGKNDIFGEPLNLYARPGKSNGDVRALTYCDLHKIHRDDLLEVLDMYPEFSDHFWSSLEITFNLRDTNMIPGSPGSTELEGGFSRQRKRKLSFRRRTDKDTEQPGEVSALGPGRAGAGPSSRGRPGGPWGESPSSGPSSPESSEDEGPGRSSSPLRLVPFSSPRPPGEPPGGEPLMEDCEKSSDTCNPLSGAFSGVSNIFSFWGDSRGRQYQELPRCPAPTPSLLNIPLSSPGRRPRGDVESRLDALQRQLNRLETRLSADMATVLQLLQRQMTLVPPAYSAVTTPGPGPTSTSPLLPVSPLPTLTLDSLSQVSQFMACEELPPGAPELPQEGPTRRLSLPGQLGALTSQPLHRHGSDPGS
Sequence of Epstein-Barr nuclear antigen 1 (P03211 whole entry): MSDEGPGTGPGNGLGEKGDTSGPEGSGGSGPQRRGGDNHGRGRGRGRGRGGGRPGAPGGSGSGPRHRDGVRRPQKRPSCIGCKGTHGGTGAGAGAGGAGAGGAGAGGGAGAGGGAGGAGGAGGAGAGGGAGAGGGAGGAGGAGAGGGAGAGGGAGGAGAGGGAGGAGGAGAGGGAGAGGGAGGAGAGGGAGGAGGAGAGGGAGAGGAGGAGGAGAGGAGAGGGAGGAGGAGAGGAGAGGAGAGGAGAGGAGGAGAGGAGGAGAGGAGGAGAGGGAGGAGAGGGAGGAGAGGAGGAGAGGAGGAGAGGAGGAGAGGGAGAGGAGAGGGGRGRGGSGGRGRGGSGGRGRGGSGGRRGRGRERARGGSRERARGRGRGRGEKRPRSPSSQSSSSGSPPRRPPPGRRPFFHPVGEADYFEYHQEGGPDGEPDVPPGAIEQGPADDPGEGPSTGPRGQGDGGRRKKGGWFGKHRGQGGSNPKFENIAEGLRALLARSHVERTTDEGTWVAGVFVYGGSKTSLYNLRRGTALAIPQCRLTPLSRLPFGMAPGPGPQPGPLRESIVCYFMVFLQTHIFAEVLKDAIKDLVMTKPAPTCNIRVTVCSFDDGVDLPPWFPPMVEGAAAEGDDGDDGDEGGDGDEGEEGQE
Sequence of Galanin receptor type 2 (O43603 whole entry): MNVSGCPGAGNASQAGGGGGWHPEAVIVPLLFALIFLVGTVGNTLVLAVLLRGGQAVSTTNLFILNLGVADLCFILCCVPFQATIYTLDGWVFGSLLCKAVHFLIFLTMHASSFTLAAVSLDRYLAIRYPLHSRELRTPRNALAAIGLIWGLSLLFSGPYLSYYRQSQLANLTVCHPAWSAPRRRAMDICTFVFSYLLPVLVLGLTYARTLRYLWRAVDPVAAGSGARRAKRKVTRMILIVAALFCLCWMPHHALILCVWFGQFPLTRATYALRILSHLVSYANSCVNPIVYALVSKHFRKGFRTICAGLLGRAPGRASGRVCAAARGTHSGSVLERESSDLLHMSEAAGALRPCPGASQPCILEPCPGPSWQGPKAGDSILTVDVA
Sequence of FAD-linked sulfhydryl oxidase ALR (P55789 whole entry): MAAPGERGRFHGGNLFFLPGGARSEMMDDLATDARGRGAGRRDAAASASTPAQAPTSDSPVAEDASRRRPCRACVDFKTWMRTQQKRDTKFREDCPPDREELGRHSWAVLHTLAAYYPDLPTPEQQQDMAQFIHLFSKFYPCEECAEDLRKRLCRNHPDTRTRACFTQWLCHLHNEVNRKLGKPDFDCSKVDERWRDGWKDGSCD
Sequence of Cytochrome P450 2C9 (P11712 whole entry): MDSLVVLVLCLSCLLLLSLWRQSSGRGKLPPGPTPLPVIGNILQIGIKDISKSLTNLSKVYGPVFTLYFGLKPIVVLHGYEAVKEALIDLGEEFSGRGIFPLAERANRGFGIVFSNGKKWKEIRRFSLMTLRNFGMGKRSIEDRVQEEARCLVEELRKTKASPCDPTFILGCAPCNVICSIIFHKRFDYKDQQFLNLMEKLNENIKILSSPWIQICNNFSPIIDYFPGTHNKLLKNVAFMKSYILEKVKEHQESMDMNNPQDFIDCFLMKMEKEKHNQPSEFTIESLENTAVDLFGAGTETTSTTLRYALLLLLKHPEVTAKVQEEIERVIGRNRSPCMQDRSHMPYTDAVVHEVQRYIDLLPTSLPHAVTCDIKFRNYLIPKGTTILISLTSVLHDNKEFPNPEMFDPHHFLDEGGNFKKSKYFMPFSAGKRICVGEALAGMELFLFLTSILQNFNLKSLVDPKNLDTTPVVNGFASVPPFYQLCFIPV
Sequence of 5-hydroxytryptamine receptor 1A (P08908 whole entry): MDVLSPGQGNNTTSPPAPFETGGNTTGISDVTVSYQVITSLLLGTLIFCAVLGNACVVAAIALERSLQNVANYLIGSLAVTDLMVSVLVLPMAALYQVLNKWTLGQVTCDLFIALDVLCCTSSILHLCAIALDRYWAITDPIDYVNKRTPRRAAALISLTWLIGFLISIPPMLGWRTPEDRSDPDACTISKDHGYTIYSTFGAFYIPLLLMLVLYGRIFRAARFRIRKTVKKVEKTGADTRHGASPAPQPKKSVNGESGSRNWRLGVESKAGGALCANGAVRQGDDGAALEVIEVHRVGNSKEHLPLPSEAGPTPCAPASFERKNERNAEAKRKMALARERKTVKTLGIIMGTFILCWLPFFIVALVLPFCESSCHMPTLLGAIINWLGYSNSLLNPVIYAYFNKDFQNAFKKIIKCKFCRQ

SMILES: Cn1cc(/C=C2/SC(=O)N(CC(=O)Nc3ccc4c(c3)OCO4)C2=O)c2ccccc21
- IC50 [1]: 5.72 µM (active)
- AC50 (Cytochrome P450 2C9): 7.08 µM (inconclusive)
- IC50 [2]: > 111 µM (not active)

SMILES: COc1ccc(C(C(=O)NC2CCCC2)N(C(=O)c2snc(C(N)=O)c2N)c2cc(C)ccc2OC)cc1OC (stereo not drawn)
- IC50 (cells [3]): 6.11 µM (active)

SMILES: O=C(NC(=S)Nc1ccc(N2CCCCC2)c(Cl)c1)c1cccs1
- CC50 [4]: > 40 µM (active)
- AC50 [5]: 6.16 µM (active)
- CC50 [6]: 17.3 µM (active)
- EC50 [7]: 0.2 µM (active)

SMILES: c1ccc(-n2nnc(-c3cnc4ccccc4c3)n2)cc1
- IC50 (Bcl-2-related protein A1 [8]): > 100 µM (not active)
- IC50 (Bcl-2-related protein A1 [9]): > 100 µM (not active)

SMILES: Clc1ncccc1-c1nnn(-c2ccccc2)n1
- IC50 (Bcl-2-related protein A1 [8]): > 100 µM (not active)
- IC50 (Bcl-2-related protein A1 [9]): > 100 µM (not active)

SMILES: O=C(Nc1ccccc1[N+](=O)[O-])C1=C(O)CCn2c1nc1ccccc12
- IC50 (Estrogen receptor [10]): 18.6 µM (active)
- EC50 (HEK293 [11]): > 59.7 µM (inactive)
- EC50 (HEK293 [12]): > 59.7 µM (inactive)

SMILES: CCOc1ccccc1N1C(=O)NC(=O)C(CCc2ccncc2)(CCc2ccncc2)C1=O
- EC50 (Estrogen receptor [13]): 12.7 µM (active)

SMILES: Cc1ccc(C(=O)c2oc3ccccc3c2NC(=O)c2cc(-c3cc(C)ccc3O)[nH]n2)cc1
- CC50 [14]: 7.97 µM (active)

SMILES: CN(c1ccccc1)S(=O)(=O)c1cccc(C(=O)NCCc2ccc(O)c(O)c2)c1
- AC50 [15]: 4.37 µM (active)
- IC50 [16]: 7.29 µM (active)
- IC50 [17]: 69.2 µM (active)

SMILES: Nc1nc(CCl)nc(N(c2ccccc2)c2ccccc2)n1
- EC50 (BJ [18]): 2.65 µM (active)
- EC50 (BJ [19]): 0.652 µM (inconclusive)
- EC50 (BJ [20]): 0.229 µM (active)
- EC50 (BJ [21]): 12.1 µM (inconclusive)
- EC50 [22]: 0.674 µM (active)
- IC50 [16]: 0.721 µM (active)

SMILES: CC1CCCCC1NC(=S)NC(=O)c1sc2ccccc2c1Cl (stereo not drawn)
- EC50 [7]: 4.87 µM (active)

SMILES: COc1ccc(NC(=O)CSc2nc(N)c(C(=O)Nc3ccc(N(C)C)cc3)s2)cc1
- CC50 [14]: > 40 µM (active)

SMILES: CCCCC1CCC(C(=O)Nc2ccc(S(=O)(=O)Nc3nccs3)cc2)CC1 (stereo not drawn)
- IC50 (cells [3]): 36.5 µM (active)
- IC50 (cells [23]): 14.5 µM (active)
- CC50 [6]: 34.3 µM (active)

SMILES: COc1ccc(NC(=O)NCc2ccc3c(c2)OCO3)c(OC)c1
- IC50 [1]: 18.3 µM (not active)
- IC50 [2]: > 111 µM (not active)

SMILES: Cc1ccc(S(=O)(=O)NCc2ccncc2)cc1
- IC50 (Galanin receptor type 2): > 42 µM (not active)

SMILES: O=C(COC(=O)C1CC2C=CC1C2)NCc1ccco1 (stereo not drawn)
- IC50 (Estrogen receptor beta [24]): 7.15 µM (active)
- IC50 (Estrogen receptor beta [25]): > 109 µM (not active)

SMILES: CN1CC=C(c2c[nH]c3ccccc23)CC1
- EC50 [26]: 12 µM (not active)

SMILES: COc1cc(/C=C/[N+](=O)[O-])ccc1O
- EC50 (BJ [18]): 15.5 µM (active)
- EC50 (BJ [19]): 10.6 µM (inconclusive)
- IC50 (Galanin receptor type 2): > 4.6 µM (not active)
- EC50 (BJ [20]): 4.46 µM (active)
- EC50 [27]: 8.18 µM (active)
- EC50 (BJ [21]): > 75 µM (inconclusive)
- IC50 [28]: 4.84 µM (active)
- EC50 [22]: 10.3 µM (active)

SMILES: C/C=C(/C(=C/C)c1ccc(O)cc1)c1ccc(O)cc1 [DIENESTROL]
- EC50 (Estrogen receptor [13]): 13.2 µM (active)
- IC50 [29]: > 40 µM (inactive)
- IC50 [30]: > 40 µM (inactive)
